pKd: −log10 of the molar value. Ends that are not written are not given here.
Experiments:
[1] = target: hFlt-1 (Homo sapiens, UniProt P17948); test: Binding of alanine-substituted and truncated phage clones to immobilized Flt-1 receptor by ELISA; details: relative to clone V5.2
[2] = target: VEGF receptor-1 (human Flt-1/Fc chimera) (Homo sapiens, UniProt P17948); test: Phage binding assay to immobilized VEGF receptor-1 (anti-M13 ELISA); details: 10^9 virions/200 μl, overnight at 4 degree
[3] = target: Flt-1 (Homo sapiens, UniProt P17948); details: cited from earlier work
[4] = tested on: endothelial cells; details: VEGF binding to KDR; cited from earlier work

hFlt-1, sequence (P17948 27-687 isoform P17948-2 limits assumed): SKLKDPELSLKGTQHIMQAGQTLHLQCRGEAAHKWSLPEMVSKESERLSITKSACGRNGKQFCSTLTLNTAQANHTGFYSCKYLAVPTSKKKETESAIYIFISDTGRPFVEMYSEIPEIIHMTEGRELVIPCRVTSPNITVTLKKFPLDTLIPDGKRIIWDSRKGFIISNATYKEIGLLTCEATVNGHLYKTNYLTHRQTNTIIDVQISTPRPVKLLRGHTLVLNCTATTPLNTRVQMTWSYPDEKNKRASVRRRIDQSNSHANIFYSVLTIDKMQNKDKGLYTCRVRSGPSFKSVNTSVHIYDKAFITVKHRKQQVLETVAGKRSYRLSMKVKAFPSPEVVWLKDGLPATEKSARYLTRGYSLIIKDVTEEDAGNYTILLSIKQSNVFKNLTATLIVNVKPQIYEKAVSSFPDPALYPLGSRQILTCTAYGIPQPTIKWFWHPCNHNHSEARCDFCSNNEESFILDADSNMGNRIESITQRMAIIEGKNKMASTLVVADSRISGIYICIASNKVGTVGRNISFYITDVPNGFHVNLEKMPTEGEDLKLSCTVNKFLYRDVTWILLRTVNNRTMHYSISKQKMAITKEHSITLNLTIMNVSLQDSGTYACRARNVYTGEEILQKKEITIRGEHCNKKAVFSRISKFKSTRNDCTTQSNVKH
VEGF receptor-1 (human Flt-1/Fc chimera), sequence (P17948 27-687 isoform P17948-2 limits assumed): as above
Flt-1, sequence (P17948 27-1338, species assumed): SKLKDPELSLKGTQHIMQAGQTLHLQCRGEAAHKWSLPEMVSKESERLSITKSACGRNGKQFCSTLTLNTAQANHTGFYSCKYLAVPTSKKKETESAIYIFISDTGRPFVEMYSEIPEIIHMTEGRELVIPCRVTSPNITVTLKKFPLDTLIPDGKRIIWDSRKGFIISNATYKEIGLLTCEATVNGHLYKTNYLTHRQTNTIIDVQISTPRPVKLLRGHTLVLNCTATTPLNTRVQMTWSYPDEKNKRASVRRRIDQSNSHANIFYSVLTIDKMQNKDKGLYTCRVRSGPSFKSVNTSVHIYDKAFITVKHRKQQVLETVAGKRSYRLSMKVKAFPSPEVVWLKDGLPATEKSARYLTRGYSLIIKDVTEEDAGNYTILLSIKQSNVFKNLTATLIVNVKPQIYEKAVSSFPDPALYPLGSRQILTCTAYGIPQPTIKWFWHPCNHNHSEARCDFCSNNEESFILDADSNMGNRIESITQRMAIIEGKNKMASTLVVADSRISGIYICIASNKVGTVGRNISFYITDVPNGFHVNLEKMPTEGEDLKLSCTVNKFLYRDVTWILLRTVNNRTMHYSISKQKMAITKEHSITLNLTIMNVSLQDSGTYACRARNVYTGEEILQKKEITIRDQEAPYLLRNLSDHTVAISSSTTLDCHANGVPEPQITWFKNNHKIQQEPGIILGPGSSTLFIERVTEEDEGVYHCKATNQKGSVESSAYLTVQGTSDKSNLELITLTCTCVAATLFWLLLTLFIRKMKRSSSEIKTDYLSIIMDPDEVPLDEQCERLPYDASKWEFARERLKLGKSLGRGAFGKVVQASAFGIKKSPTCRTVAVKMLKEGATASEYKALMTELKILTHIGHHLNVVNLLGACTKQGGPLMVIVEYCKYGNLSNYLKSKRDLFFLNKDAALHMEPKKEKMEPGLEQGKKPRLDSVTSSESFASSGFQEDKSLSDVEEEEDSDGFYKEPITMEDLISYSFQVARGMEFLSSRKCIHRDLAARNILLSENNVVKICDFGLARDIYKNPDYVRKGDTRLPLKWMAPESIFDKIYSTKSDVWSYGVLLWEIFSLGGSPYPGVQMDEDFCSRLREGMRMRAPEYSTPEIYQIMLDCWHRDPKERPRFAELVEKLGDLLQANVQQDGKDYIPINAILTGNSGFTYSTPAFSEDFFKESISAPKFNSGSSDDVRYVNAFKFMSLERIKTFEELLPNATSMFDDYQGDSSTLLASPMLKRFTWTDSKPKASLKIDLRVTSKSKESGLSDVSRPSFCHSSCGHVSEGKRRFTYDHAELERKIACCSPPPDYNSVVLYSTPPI

Substance | Binding to hFlt-1 in % [1] [%] | ABSORBANCE, A 405 [2] | also measured
EIEWYSW (displayed on phage; Chemical peptide synthesis and biosynthesis utilizing E. coli) [V5.2/1] | 6.55 ± 15.81 | – | –
FVGGWLVPEDERLYPE [V40] | – | 0.025 ± 0.014 | –
NGYAIAWYSWVTHGMY (displayed on phage; Chemical peptide synthesis and biosynthesis utilizing E. coli) [E46/A] | 44.46 ± 7.05 | – | –
NGYEIEAYSAVTHGMY (displayed on phage; Chemical peptide synthesis and biosynthesis utilizing E. coli) [W710/A] | 62.15 ± 22.16 | – | –
PEPEVRLSPPGHIQSL [V5.10] | – | 0.039 ± 0.013 | –
VEGF | – | – | pKd [3]: 10.70 to 11.00; ED50 [4]: 0.1 to 1 ng/mL

Reference: patent US7112654B2, “Ligand for vascular endothelial growth factor receptor” (Supratek Pharma Inc., priority 2001, dated 2006)
